According to ChEMBL document CHEMBL5154925, “Design and Optimization of Thienopyrimidine Derivatives as Potent and Selective PI3Kδ Inhibitors for the Treatment of B-Cell Malignancies” (J Med Chem, 2022):
≈ marks a conversion by molar mass, not a printed value.

What was measured:
[1] = target: Phosphatidylinositol 4,5-bisphosphate 3-kinase catalytic subunit alpha isoform (Homo sapiens, UniProt P42336); experiment: Inhibition of PI3Kalpha (unknown origin) using PIP2 as substrate measured after 1 hr in presence of ATP by ADP-glo luminescence assay
[2] = target: T1, Phosphatidylinositol 4,5-bisphosphate 3-kinase catalytic subunit delta isoform (Homo sapiens, UniProt O00329); experiment: Inhibition of PI3Kdelta (unknown origin) using PIP2 as substrate measured after 1 hr in presence of ATP by ADP-glo luminescence assay
T1 sequence (O00329 whole entry): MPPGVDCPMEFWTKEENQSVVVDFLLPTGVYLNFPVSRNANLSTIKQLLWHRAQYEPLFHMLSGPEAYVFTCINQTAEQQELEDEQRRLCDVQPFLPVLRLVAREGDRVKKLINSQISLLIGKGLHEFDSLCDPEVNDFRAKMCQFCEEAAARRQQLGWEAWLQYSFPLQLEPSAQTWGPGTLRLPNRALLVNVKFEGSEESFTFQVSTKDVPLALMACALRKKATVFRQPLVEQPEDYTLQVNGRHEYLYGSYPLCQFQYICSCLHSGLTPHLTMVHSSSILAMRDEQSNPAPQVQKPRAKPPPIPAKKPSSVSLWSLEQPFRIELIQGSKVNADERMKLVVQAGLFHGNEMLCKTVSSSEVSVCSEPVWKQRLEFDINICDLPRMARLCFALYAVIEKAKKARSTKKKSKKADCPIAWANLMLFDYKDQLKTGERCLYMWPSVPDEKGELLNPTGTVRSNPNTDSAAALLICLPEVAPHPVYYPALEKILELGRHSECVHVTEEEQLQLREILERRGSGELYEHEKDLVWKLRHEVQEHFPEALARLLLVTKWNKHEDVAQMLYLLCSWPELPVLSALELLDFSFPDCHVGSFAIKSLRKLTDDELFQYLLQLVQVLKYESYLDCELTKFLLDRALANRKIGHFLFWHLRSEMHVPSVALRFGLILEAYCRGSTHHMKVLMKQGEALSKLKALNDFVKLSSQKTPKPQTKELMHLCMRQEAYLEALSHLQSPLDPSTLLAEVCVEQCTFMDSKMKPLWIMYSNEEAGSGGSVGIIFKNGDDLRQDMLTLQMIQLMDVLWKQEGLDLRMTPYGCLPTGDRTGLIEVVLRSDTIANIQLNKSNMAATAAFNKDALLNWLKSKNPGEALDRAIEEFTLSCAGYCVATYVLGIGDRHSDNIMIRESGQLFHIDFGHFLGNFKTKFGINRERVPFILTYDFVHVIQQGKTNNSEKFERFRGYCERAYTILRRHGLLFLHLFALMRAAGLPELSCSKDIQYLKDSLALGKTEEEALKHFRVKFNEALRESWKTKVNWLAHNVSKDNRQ

[3] = target: Serine/threonine-protein kinase mTOR (Homo sapiens, UniProt P42345); experiment: Inhibition of mTOR (unknown origin)
[4] = target: T2, Phosphatidylinositol 4,5-bisphosphate 3-kinase catalytic subunit beta isoform (Homo sapiens, UniProt P42338); experiment: Inhibition of PI3Kbeta in LPA stimulated human PC-3 cells incubated for 10 mins by AlphaLISA assay; format: cell-based
[5] = target: Phosphatidylinositol 4,5-bisphosphate 3-kinase catalytic subunit alpha isoform (Mus musculus, UniProt P42337); experiment: Inhibition of PI3Kalpha in IGF-1 stimulated mouse C2C12 cells incubated for 10 mins by AlphaLISA assay; format: cell-based
[6] = Solubility of the compound in FaSSIF; format: physicochemical
[7] = target: T2, Phosphatidylinositol 4,5-bisphosphate 3-kinase catalytic subunit beta isoform; experiment: Inhibition of PI3Kbeta (unknown origin) using PIP2 as substrate measured after 1 hr in presence of ATP by ADP-glo luminescence assay
[8] = target: T1, Phosphatidylinositol 4,5-bisphosphate 3-kinase catalytic subunit delta isoform; experiment: Inhibition of PI3Kdelta in IgM stimulated human Raji cells incubated for 10 mins by AlphaLISA assay; format: cell-based
[9] = Microsomal stability in mouse liver microsomes assessed as intrinsic clearance; format: ADME, Microsome; details: read-out: CLH
[10] = target: Phosphatidylinositol 4,5-bisphosphate 3-kinase catalytic subunit gamma isoform (Homo sapiens, UniProt P48736); experiment: Inhibition of PI3Kgamma (unknown origin) using PIP2 as substrate measured after 1 hr in presence of ATP by ADP-glo luminescence assay
[11] = Solubility of the compound in PBS; format: physicochemical
[12] = Microsomal stability in mouse liver microsomes assessed as half life; format: ADME, Microsome
[13] = Plasma protein binding in mouse; format: ADME, cell-free; details: read-out: PPB (converted)
[14] = target: Phosphatidylinositol 4,5-bisphosphate 3-kinase catalytic subunit gamma isoform (Mus musculus, UniProt Q9JHG7); experiment: Inhibition of PI3Kgamma in C5a stimulated mouse RAW264.7 cells incubated for 10 mins by AlphaLisa assay; format: cell-based
Chain of Phosphatidylinositol 4,5-bisphosphate 3-kinase catalytic subunit gamma isoform (Mus musculus, UniProt Q9JHG7) (Q9JHG7 whole entry, canonical isoform): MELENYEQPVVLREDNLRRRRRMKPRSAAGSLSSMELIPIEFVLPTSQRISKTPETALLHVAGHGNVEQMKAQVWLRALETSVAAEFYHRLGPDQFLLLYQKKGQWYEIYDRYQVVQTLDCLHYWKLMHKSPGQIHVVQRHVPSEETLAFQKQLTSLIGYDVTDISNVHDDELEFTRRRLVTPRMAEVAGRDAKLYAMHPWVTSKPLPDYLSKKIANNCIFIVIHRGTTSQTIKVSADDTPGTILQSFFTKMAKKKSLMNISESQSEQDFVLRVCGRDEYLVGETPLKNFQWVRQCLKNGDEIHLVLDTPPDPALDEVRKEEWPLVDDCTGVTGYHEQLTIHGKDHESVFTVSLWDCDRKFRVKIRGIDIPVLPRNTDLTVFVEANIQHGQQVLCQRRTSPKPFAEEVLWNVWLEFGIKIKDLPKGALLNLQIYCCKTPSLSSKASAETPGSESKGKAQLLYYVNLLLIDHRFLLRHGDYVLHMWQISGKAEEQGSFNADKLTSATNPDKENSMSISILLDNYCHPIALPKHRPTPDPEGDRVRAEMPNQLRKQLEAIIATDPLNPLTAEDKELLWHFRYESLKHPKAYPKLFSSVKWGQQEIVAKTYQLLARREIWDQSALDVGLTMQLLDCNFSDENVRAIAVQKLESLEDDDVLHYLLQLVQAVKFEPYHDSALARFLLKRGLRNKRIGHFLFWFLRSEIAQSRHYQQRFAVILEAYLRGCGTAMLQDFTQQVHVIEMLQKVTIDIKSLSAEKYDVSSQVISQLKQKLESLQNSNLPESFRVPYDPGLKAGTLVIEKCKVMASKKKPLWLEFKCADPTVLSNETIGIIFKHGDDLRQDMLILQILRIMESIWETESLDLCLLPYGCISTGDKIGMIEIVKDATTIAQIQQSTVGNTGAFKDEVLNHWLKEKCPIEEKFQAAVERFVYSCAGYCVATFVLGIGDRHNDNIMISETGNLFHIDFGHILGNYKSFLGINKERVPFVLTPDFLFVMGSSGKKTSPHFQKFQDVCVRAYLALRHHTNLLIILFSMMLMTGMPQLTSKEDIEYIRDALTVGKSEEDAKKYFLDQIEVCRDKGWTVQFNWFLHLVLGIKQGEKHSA

Chain of Phosphatidylinositol 4,5-bisphosphate 3-kinase catalytic subunit alpha isoform (Homo sapiens, UniProt P42336) (P42336 whole entry, canonical isoform): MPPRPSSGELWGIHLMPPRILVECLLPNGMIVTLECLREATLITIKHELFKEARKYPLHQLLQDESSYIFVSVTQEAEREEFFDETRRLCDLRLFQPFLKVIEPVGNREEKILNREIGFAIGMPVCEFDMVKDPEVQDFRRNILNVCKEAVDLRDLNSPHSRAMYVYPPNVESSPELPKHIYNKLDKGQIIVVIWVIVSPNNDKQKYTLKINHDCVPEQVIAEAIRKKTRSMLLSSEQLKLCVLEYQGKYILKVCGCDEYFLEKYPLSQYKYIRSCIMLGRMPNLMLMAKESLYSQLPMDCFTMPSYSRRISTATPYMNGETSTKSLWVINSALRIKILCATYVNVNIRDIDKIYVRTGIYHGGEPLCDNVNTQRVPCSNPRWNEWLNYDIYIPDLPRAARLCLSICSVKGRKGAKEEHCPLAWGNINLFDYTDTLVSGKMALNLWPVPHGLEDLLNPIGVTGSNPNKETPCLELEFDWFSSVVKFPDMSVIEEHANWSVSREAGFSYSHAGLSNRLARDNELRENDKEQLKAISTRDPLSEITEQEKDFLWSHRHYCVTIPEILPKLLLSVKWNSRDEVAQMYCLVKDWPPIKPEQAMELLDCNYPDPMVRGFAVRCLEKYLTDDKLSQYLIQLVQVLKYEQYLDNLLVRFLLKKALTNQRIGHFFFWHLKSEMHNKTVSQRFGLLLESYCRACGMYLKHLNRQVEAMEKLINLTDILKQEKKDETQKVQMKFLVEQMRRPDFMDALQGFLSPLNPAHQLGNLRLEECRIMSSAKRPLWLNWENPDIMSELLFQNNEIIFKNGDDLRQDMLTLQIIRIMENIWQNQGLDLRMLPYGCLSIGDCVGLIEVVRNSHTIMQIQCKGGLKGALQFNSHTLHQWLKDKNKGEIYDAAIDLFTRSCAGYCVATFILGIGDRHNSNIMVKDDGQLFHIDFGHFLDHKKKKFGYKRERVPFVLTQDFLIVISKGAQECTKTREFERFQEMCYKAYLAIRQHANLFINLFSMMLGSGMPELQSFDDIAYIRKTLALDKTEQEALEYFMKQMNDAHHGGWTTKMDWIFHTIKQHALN
T2 sequence (P42338 whole entry, canonical isoform): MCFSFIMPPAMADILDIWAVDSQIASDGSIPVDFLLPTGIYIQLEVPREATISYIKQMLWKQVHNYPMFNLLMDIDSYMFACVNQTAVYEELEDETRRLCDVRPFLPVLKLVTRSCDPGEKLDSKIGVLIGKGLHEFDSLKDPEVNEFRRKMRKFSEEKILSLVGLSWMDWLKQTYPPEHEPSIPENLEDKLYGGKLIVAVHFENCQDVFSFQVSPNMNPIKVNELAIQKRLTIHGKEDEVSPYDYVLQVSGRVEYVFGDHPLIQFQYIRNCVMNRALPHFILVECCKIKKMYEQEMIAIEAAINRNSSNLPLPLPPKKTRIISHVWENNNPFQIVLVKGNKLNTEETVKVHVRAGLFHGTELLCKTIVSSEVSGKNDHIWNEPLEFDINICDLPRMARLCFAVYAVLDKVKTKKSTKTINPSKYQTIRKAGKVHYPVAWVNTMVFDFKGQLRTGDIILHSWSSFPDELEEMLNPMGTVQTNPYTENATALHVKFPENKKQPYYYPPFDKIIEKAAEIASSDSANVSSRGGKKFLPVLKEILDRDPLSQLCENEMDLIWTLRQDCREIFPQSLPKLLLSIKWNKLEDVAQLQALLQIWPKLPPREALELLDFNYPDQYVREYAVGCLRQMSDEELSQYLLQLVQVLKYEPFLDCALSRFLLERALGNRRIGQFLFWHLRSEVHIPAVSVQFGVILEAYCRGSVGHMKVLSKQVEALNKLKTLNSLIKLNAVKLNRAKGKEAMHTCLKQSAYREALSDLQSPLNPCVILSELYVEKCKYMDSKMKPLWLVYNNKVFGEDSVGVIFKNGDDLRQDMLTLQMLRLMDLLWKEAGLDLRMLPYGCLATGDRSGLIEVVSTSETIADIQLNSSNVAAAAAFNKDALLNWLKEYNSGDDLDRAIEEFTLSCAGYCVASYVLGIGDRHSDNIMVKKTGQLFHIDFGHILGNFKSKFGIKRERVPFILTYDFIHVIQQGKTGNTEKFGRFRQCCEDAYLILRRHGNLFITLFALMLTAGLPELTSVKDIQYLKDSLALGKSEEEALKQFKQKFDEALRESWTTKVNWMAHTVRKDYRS
Chain of Phosphatidylinositol 4,5-bisphosphate 3-kinase catalytic subunit gamma isoform (Homo sapiens, UniProt P48736) (P48736 whole entry, canonical isoform): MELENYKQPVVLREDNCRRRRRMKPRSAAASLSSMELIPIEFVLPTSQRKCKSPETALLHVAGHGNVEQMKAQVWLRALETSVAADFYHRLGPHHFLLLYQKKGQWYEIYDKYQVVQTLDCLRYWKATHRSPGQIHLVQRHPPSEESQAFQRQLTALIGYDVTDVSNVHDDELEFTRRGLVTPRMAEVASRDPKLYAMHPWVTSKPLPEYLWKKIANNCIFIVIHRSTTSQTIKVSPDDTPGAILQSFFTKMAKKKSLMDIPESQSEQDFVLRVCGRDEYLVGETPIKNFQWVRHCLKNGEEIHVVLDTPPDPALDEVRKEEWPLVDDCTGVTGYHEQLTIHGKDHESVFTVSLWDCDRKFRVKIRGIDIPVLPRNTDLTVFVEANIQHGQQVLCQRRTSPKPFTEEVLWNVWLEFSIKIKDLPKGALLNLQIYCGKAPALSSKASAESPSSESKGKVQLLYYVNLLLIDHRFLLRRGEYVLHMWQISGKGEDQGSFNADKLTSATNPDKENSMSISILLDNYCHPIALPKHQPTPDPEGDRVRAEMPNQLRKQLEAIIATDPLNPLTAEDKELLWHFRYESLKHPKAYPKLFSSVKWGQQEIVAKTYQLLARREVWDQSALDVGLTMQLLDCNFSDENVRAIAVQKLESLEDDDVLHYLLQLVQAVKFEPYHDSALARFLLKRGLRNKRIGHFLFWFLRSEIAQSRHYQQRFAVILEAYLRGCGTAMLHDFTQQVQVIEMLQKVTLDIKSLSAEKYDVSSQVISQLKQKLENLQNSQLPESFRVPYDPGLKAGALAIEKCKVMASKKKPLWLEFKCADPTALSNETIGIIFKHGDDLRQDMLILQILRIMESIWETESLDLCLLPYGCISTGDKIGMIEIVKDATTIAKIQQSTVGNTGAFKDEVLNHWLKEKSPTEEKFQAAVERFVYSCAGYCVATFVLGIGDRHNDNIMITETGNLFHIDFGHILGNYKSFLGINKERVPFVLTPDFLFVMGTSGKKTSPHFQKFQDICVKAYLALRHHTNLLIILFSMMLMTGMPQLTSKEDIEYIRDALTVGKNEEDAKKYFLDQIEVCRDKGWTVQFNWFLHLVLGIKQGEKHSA

Structure (SMILES)	IC50 [1]	IC50 [2]	also measured
COc1cc(-c2cc3c(N[C@H]4CCN(C(=O)C5CCCCC5)C4)ncnc3s2)cnc1OC	718 nM	30 nM	
CCC(=O)N1CC[C@H](Nc2ncnc3sc(-c4cnc(OC)c(C)c4)cc23)C1	6290 nM	45 nM	
COc1cc(-c2cc3c(N[C@H]4CCN(C(=O)c5ccccc5)C4)ncnc3s2)cnc1OC	395 nM	26 nM	
CCC(=O)N1CC[C@H](Nc2ncnc3sc(-c4ccc(OC)c(F)c4)cc23)C1	5640 nM	182 nM	
COc1cc(-c2cc3c(N[C@H]4CCN(C(=O)C5CC5)C4)ncnc3s2)cnc1OC	154 nM	4.7 nM	
COc1cc(-c2cc3c(O[C@H]4CCN(C(=O)C5CCC5)C4)ncnc3s2)cnc1OC	392 nM	3.3 nM	IC50 [3]: > 10000 nM; IC50 [4]: 6200 nM; IC50 [5]: 28300 nM; solubility [6]: 5.89 µM (≈ 2.59 µg/mL); IC50 [7]: 1960 nM; IC50 [8]: 75.7 nM; CLint scaled [9]: 1070 mL/min/kg; IC50 [10]: 2860 nM; solubility [11]: 1.41 µM (≈ 0.621 µg/mL); half-life [12]: 5.09 min; fraction unbound [13]: 0.011; IC50 [14]: 5990 nM
CCC(=O)N1CC[C@H](Nc2ncnc3sc(-c4ccc(OC)c(OC)c4)cc23)C1	589 nM	21 nM	
CCC(=O)N1CC[C@H](Nc2ncnc3sc(-c4cnc(OC)nc4)cc23)C1	2580 nM	37 nM	
CCC(=O)N1CC[C@H](Nc2ncnc3sc(-c4ccc(S(C)(=O)=O)cc4)cc23)C1	> 10000 nM	465 nM	
CCC(=O)N1CC[C@H](Nc2ncnc3sc(-c4ccc(OC)nc4)cc23)C1	2900 nM	136 nM	
CCC(=O)N1CC[C@H](Oc2ncnc3sc(-c4cnc(OC)c(F)c4)cc23)C1	7860 nM	97.5 nM	
CCC(=O)N1CC[C@H](Nc2ncnc3sc(-c4cnc(OC)c(C#N)c4)cc23)C1	4030 nM	60 nM	
CCC(=O)N1CC[C@H](Nc2ncnc3sc(-c4cnc(OC)c(F)c4)cc23)C1	3410 nM	54 nM	
CCC(=O)N1CC[C@H](Oc2ncnc3sc(-c4cnc(OC)c(C(F)(F)F)c4)cc23)C1	> 10000 nM	269 nM	
